From ChEMBL document CHEMBL3045719, “Insecticidal and Neuroblocking Activities toward American Cockroach (Periplaneta americana L.) of Imidacloprid Metabolites, 5-Hydroxy-, 4,5-Dihydroxy- and 4,5-Dehydroimidacloprid” (J Pestic Sci, 2004)
The source made the active and inactive calls. No cut-off for these calls is given here.

Assays:
Periplaneta americana [1] = test: Insecticidal activity against adult form of Periplaneta americana (American cockroach) assessed as paralysis at 8.4 nmol stored at 4 degC for 10 days injected into abdominal region measured after 2 hr; type: functional, organism-based
Periplaneta americana [2] = test: Insecticidal activity against adult form of Periplaneta americana (American cockroach) assessed as paralysis at 8.4 nmol stored at 4 degC for 10 days injected into abdominal region measured after 1 hr; type: functional, organism-based
Periplaneta americana [3] = test: Insecticidal activity against adult form of Periplaneta americana (American cockroach) assessed as paralysis at 8.4 nmol injected into abdominal region measured after 24 hr; type: functional, organism-based
Periplaneta americana [4] = test: Insecticidal activity against adult form of Periplaneta americana (American cockroach) assessed as paralysis at 8.4 nmol injected into abdominal region measured after 13 hr; type: functional, organism-based
Periplaneta americana [5] = test: Insecticidal activity against adult form of Periplaneta americana (American cockroach) assessed as paralysis at 8.4 nmol injected into abdominal region measured after 8 hr; type: functional, organism-based
Periplaneta americana [6] = test: Insecticidal activity against adult form of Periplaneta americana (American cockroach) assessed as paralysis at 8.4 nmol injected into abdominal region measured after 3 hr; type: functional, organism-based
Periplaneta americana [7] = test: Insecticidal activity against adult form of Periplaneta americana (American cockroach) assessed as paralysis at 8.4 nmol injected into abdominal region measured after 2 hr; type: functional, organism-based
Periplaneta americana [8] = test: Insecticidal activity against adult form of Periplaneta americana (American cockroach) assessed as concentration required for neuroblock in excised central nerve cord; type: functional
Periplaneta americana [9] = test: Insecticidal activity against adult form of Periplaneta americana (American cockroach) assessed as paralysis compound injected into abdominal region measured after 24 hr; type: functional
Periplaneta americana [10] = test: Ratio of imidacloprid efficacy to compound efficacy adult form of Periplaneta americana (American cockroach) assessed as concentration required for neuroblock in excised central nerve cord; type: functional
[11] = Lipophilicity, log P of the compound; type: physicochemical; conditions: octanol/water
Periplaneta americana [12] = test: Ratio of imidacloprid MLD to compound MLD for adult form of Periplaneta americana (American cockroach) assessed as paralysis compound injected into abdominal region measured after 24 hr; type: functional
Periplaneta americana [13] = test: Insecticidal activity against adult form of Periplaneta americana (American cockroach) assessed as paralysis at 8.4 nmol injected into abdominal region measured after 1 hr; type: functional, organism-based
Periplaneta americana [14] = test: Insecticidal activity against adult form of Periplaneta americana (American cockroach) assessed as paralysis at 8.4 nmol injected into abdominal region measured after 32 hr; type: functional, organism-based
Periplaneta americana [15] = test: Insecticidal activity against adult form of Periplaneta americana (American cockroach) assessed as paralysis at 8.4 nmol stored at 4 degC for 10 days injected into abdominal region measured after 3 hr; type: functional, organism-based
Periplaneta americana [16] = test: Insecticidal activity against adult form of Periplaneta americana (American cockroach) assessed as paralysis at 250 nmol injected into abdominal region measured after 1 to 32 hr; type: functional, organism-based
Periplaneta americana [17] = test: Insecticidal activity against adult form of Periplaneta americana (American cockroach) assessed as paralysis at 19 nmol injected into abdominal region measured after 32 hr; type: functional, organism-based
Periplaneta americana [18] = test: Insecticidal activity against adult form of Periplaneta americana (American cockroach) assessed as paralysis at 19 nmol injected into abdominal region measured after 24 hr; type: functional, organism-based
Periplaneta americana [19] = test: Insecticidal activity against adult form of Periplaneta americana (American cockroach) assessed as paralysis at 19 nmol injected into abdominal region measured after 13 hr; type: functional, organism-based
Periplaneta americana [20] = test: Insecticidal activity against adult form of Periplaneta americana (American cockroach) assessed as paralysis at 19 nmol injected into abdominal region measured after 8 hr; type: functional, organism-based
Periplaneta americana [21] = test: Insecticidal activity against adult form of Periplaneta americana (American cockroach) assessed as paralysis at 19 nmol injected into abdominal region measured after 3 hr; type: functional, organism-based
Periplaneta americana [22] = test: Insecticidal activity against adult form of Periplaneta americana (American cockroach) assessed as paralysis at 19 nmol injected into abdominal region measured after 2 hr; type: functional, organism-based
Periplaneta americana [23] = test: Insecticidal activity against adult form of Periplaneta americana (American cockroach) assessed as paralysis at 19 nmol injected into abdominal region measured after 1 hr; type: functional, organism-based
[24] = biological target: T1, Nicotinic acetylcholine receptor alpha 5 subunit (Musca domestica) (UniProt A9XFY4); test: Binding affinity to nicotinic acetylcholine receptor in Musca domestica (house fly) head membrane relative to imidacloprid
T1 sequence (whole entry): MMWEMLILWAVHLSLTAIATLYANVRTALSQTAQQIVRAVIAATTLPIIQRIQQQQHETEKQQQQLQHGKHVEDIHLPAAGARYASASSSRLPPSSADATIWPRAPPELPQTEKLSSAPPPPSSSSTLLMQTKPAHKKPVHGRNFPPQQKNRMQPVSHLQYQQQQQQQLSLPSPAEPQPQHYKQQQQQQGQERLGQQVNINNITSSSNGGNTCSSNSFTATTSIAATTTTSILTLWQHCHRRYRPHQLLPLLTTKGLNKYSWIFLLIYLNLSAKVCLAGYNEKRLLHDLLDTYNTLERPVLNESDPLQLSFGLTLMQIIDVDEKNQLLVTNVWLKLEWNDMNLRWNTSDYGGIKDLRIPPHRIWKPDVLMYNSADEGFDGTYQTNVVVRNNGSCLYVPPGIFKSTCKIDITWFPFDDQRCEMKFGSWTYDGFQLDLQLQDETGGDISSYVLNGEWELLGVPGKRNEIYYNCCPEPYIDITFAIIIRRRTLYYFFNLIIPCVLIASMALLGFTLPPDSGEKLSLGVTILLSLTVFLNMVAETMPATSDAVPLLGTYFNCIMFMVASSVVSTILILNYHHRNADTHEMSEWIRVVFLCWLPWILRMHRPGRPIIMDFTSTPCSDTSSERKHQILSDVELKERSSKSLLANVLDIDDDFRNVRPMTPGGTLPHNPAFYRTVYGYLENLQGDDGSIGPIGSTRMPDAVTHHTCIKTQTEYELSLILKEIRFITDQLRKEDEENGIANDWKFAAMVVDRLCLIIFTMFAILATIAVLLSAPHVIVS

Myzus persicae = test: Ratio of imidacloprid efficacy to compound efficacy for po dosed Myzus persicae (green peach aphid); type: functional
Bemisia tabaci = test: Ratio of imidacloprid efficacy to compound efficacy for po dosed Bemisia tabaci (sweet potato whitefly); type: functional
Aphis gossypii = test: Ratio of imidacloprid efficacy to compound efficacy for po dosed Aphis gossypii (cotton aphid); type: functional
Periplaneta americana [25] = test: Insecticidal activity against adult form of Periplaneta americana (American cockroach) assessed as paralysis at 1.1 nmol injected into abdominal region measured after 24 hr; type: functional, organism-based
Periplaneta americana [26] = test: Insecticidal activity against adult form of Periplaneta americana (American cockroach) assessed as paralysis at 1.1 nmol injected into abdominal region measured after 13 hr; type: functional, organism-based
Periplaneta americana [27] = test: Insecticidal activity against adult form of Periplaneta americana (American cockroach) assessed as paralysis at 1.1 nmol injected into abdominal region measured after 3 hr; type: functional, organism-based
Periplaneta americana [28] = test: Insecticidal activity against adult form of Periplaneta americana (American cockroach) assessed as paralysis at 1.1 nmol injected into abdominal region measured after 8 hr; type: functional, organism-based
Periplaneta americana [29] = test: Insecticidal activity against adult form of Periplaneta americana (American cockroach) assessed as paralysis at 1.1 nmol injected into abdominal region measured after 2 hr; type: functional, organism-based
Periplaneta americana [30] = test: Insecticidal activity against adult form of Periplaneta americana (American cockroach) assessed as paralysis at 1.1 nmol injected into abdominal region measured after 1 hr; type: functional, organism-based
Periplaneta americana [31] = test: Insecticidal activity against adult form of Periplaneta americana (American cockroach) assessed as paralysis at 1.1 nmol injected into abdominal region measured after 32 hr; type: functional, organism-based
[32] = Half life in Apis mellifera (honey bee); type: ADME, organism-based; conditions: in vivo

## O=[N+]([O-])/N=C1\NCC(O)N1Cc1ccc(Cl)nc1 (centres undefined) [5-HYDROXYIMIDACLOPRID]
Periplaneta americana [1]
  Activity: Active
Periplaneta americana [2]
  Activity: Active
Periplaneta americana [3]
  Activity: Active
Periplaneta americana [4]
  Activity: Active
Periplaneta americana [5]
  Activity: Active
Periplaneta americana [6]
  Activity: Active
Periplaneta americana [7]
  Activity: Active
Periplaneta americana [8]
  Activity: 150 µM
Periplaneta americana [9]
  MLD: 11 nmol
Periplaneta americana [10]
  Ratio: 20
[11]
  logP: 8
Periplaneta americana [12]
  Ratio: 10
Periplaneta americana [13]
  Activity: inactive
Periplaneta americana [14]
  Activity: inactive
Periplaneta americana [15]
  Activity: Active

## O=[N+]([O-])/N=C1\NC(O)C(O)N1Cc1ccc(Cl)nc1 (centres undefined) [4,5-DIHYDROXYIMIDACLOPRID]
Periplaneta americana [8]
  Activity: >370 µM
Periplaneta americana [9]
  MLD: >250 nmol
Periplaneta americana [16]
  Activity: inactive

## O=[N+]([O-])Nc1nccn1Cc1ccc(Cl)nc1 [DEHYDROIMIDACLOPRID]
Periplaneta americana [17]
  Activity: Active
Periplaneta americana [18]
  Activity: Active
Periplaneta americana [19]
  Activity: Active
Periplaneta americana [20]
  Activity: Active
Periplaneta americana [21]
  Activity: Active
Periplaneta americana [22]
  Activity: Active
Periplaneta americana [23]
  Activity: Active
Periplaneta americana [8]
  Activity: 49 µM
Periplaneta americana [9]
  MLD: 19 nmol
[24]
  Ratio: 3
Periplaneta americana [10]
  Ratio: 20
Myzus persicae
  Ratio: >10
Bemisia tabaci
  Ratio: >10
Aphis gossypii
  Ratio: >10
[11]
  logP: 0.45
Periplaneta americana [12]
  Ratio: 10

## O=[N+]([O-])/N=C1\NCCN1Cc1ccc(Cl)nc1 [IMIDACLOPRID]
Periplaneta americana [25]
  Activity: Active
Periplaneta americana [26]
  Activity: Active
Periplaneta americana [27]
  Activity: Active
Periplaneta americana [28]
  Activity: Active
Periplaneta americana [29]
  Activity: Active
Periplaneta americana [30]
  Activity: Active
Periplaneta americana [8]
  Activity: 2.3 µM
Periplaneta americana [9]
  MLD: 1.1 nmol
Periplaneta americana [31]
  Activity: inactive

## O=[N+]([O-])NC1=NCCN1Cc1ccc(Cl)nc1 [IMIDACLOPRID]
[32]
  half-life: 4.5 h
